Reference: ChEMBL document CHEMBL1938230, “6-Position optimization of tricyclic 4-quinolone-based inhibitors of glycogen synthase kinase-3β: discovery of nitrile derivatives with picomolar potency” (Bioorg Med Chem Lett, 2012)

Columns and labels:
[1] = target: PI4KA/PI4KAP2 (Homo sapiens) (UniProt P42356+A4QPH2); experiment: Inhibition of human PI4KA/PI4KAP2 in HL-60 cells lysate assessed as reduction of labeling of acyl-phosphate ATP probe at 100 nM; format: cell-free
HL-60 = experiment: Inhibition of human CDK11/CDK8 in HL-60 cells lysate assessed as reduction of labeling of acyl-phosphate ATP probe at 100 nM
[2] = target: Tyrosine-protein kinase Fes/Fps (Homo sapiens) (UniProt P07332); experiment: Inhibition of human FES in HL-60 cells lysate assessed as reduction of labeling of acyl-phosphate ATP probe at 100 nM; format: cell-free
Tyrosine-protein kinase Fes/Fps (Homo sapiens), sequence (P07332 whole entry): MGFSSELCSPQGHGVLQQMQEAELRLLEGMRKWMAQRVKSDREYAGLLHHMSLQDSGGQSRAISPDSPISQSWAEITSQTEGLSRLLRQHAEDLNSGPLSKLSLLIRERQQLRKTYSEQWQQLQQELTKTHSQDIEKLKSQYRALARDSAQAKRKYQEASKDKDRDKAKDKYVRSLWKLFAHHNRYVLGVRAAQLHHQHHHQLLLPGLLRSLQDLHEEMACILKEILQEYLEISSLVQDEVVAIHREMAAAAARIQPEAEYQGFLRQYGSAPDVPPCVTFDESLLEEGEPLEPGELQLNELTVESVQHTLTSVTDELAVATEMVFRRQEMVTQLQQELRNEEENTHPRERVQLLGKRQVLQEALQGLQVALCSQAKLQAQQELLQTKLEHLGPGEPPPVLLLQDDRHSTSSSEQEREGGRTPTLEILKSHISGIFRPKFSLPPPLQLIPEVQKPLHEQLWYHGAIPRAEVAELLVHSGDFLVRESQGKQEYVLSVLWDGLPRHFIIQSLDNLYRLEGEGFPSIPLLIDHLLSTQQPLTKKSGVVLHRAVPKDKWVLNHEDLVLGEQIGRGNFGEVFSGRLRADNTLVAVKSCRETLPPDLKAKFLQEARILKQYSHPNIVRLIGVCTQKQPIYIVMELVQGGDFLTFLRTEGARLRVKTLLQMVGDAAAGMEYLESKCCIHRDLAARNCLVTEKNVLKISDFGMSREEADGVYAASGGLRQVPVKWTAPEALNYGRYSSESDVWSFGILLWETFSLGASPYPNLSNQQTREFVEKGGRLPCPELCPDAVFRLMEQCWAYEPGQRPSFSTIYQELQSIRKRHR

[3] = target: Calcium/calmodulin-dependent protein kinase kinase 2 (Homo sapiens) (UniProt Q96RR4); experiment: Inhibition of human CaMKK2 in HL-60 cells lysate assessed as reduction of labeling of acyl-phosphate ATP probe at 100 nM; format: cell-free
Calcium/calmodulin-dependent protein kinase kinase 2 (Homo sapiens), sequence (Q96RR4 2-588 limits assumed): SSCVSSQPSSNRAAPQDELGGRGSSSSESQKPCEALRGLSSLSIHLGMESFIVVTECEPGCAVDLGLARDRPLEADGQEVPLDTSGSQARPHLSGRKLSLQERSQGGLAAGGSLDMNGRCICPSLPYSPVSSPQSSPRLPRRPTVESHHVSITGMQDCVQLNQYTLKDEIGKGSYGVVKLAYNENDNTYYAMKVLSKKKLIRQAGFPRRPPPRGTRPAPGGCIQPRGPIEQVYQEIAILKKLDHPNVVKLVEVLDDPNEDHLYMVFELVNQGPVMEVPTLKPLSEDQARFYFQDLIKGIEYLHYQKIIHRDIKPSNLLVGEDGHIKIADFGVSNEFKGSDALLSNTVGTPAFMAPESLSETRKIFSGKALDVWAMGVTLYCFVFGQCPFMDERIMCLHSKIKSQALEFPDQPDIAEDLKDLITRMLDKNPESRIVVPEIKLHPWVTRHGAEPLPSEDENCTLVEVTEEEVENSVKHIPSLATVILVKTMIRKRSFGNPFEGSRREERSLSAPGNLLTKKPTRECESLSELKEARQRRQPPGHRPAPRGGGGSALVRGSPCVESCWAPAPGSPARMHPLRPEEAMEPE

[4] = target: T1, Phosphatidylinositol 5-phosphate 4-kinase type-2 beta (Homo sapiens) (UniProt P78356); experiment: Inhibition of human PIP4K2B in HL-60 cells lysate assessed as reduction of labeling of acyl-phosphate ATP probe at 100 nM; format: cell-free
T1 sequence (whole entry): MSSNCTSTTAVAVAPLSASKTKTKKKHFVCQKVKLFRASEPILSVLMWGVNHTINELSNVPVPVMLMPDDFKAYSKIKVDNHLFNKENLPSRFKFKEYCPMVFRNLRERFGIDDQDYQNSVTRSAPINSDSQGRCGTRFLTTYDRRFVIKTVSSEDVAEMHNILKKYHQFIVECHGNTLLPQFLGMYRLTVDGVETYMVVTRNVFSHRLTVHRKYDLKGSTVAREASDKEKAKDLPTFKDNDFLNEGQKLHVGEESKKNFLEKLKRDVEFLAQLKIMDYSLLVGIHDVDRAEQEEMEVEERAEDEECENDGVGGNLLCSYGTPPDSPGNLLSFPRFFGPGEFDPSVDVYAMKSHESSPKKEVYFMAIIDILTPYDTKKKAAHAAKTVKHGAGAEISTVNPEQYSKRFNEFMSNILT

Escherichia coli = experiment: Antibacterial activity against Escherichia coli ATCC 8739; format: ADME, organism-based
[5] = target: T2, Inhibitor of nuclear factor kappa-B kinase subunit beta (Homo sapiens) (UniProt O14920); experiment: Inhibition of human IKK-beta in HL-60 cells lysate assessed as reduction of labelling of acyl-phosphate ATP probe at 100 nM; format: cell-free
T2 sequence (whole entry): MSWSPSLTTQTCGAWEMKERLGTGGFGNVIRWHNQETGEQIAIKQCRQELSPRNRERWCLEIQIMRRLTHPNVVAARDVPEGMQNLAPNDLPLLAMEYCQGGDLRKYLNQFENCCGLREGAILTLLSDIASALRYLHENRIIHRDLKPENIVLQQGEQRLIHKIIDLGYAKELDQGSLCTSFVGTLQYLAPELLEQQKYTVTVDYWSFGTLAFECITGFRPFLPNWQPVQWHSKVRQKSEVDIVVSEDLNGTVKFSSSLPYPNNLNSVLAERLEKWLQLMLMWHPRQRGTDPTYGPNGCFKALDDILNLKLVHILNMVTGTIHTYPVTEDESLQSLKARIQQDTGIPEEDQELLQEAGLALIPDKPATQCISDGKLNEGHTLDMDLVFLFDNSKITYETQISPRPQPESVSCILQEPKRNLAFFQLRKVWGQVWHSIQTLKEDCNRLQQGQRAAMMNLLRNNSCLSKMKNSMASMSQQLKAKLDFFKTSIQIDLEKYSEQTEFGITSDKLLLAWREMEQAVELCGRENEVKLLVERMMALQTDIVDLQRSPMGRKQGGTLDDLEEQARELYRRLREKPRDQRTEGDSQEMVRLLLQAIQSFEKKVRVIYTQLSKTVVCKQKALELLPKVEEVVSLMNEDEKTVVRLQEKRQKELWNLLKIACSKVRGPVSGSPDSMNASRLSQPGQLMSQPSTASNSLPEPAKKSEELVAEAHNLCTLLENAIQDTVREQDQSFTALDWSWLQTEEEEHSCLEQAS

[6] = target: T3, Inositol-tetrakisphosphate 1-kinase (Homo sapiens) (UniProt Q13572); experiment: Inhibition of human ITPK1 in HL-60 cells lysate assessed as reduction of labeling of acyl-phosphate ATP probe at 100 nM; format: cell-free
T3 sequence (whole entry): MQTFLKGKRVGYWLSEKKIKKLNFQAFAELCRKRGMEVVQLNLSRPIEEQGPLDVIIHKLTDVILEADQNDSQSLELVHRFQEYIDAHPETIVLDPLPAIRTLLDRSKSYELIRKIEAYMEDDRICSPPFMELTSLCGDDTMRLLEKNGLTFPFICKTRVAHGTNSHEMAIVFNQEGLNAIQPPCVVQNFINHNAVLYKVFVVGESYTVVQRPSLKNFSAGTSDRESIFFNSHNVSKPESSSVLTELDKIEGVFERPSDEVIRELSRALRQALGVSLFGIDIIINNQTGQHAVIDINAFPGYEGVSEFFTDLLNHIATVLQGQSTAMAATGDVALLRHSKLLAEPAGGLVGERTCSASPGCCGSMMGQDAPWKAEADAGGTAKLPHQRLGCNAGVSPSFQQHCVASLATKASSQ

[7] = target: Mitogen-activated protein kinase kinase kinase kinase 5 (Homo sapiens) (UniProt Q9Y4K4); experiment: Inhibition of human KHS1 in HL-60 cells lysate assessed as reduction of labeling of acyl-phosphate ATP probe at 100 nM; format: cell-free
Mitogen-activated protein kinase kinase kinase kinase 5 (Homo sapiens), sequence (Q9Y4K4 whole entry, looked up): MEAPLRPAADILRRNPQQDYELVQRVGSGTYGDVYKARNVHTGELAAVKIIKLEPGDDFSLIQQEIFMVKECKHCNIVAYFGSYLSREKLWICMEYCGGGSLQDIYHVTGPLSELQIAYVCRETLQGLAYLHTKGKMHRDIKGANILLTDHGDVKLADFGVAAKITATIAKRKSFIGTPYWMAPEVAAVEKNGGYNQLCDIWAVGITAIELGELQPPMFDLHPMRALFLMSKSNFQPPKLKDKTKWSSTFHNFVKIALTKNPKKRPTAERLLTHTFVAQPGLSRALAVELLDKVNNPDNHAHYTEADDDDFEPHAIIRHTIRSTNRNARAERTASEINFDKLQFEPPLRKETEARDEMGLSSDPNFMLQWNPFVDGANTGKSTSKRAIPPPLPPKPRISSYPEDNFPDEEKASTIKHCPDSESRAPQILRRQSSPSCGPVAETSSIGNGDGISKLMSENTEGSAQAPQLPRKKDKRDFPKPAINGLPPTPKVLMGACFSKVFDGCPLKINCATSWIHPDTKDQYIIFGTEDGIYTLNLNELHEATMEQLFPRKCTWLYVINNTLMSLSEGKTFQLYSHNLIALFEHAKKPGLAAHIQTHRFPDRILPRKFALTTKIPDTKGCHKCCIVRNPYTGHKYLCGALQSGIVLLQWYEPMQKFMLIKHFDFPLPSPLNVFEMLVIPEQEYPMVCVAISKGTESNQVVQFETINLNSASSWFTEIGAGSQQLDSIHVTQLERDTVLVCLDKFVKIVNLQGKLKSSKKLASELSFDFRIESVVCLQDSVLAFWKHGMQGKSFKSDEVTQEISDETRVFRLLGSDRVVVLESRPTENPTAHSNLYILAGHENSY

[8] = target: T4, Dual specificity mitogen-activated protein kinase kinase 7 (Homo sapiens) (UniProt O14733); experiment: Inhibition of human MAP2K7 in HL-60 cells lysate assessed as reduction of labeling of acyl-phosphate ATP probe at 100 nM; format: cell-free
T4 sequence (whole entry): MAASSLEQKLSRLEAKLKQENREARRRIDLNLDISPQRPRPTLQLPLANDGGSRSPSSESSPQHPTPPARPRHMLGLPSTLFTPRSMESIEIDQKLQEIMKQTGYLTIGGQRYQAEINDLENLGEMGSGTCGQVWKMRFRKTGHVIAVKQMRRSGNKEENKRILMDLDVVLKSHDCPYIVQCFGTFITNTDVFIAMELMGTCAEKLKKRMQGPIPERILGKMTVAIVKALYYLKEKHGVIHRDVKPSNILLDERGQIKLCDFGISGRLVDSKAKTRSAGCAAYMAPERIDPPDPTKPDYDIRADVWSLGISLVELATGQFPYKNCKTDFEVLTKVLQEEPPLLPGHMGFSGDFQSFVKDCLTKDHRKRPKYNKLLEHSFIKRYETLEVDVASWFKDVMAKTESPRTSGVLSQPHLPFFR

PI4KA/PI4KAP2 (Homo sapiens), sequence (A4QPH2 whole entry, looked up): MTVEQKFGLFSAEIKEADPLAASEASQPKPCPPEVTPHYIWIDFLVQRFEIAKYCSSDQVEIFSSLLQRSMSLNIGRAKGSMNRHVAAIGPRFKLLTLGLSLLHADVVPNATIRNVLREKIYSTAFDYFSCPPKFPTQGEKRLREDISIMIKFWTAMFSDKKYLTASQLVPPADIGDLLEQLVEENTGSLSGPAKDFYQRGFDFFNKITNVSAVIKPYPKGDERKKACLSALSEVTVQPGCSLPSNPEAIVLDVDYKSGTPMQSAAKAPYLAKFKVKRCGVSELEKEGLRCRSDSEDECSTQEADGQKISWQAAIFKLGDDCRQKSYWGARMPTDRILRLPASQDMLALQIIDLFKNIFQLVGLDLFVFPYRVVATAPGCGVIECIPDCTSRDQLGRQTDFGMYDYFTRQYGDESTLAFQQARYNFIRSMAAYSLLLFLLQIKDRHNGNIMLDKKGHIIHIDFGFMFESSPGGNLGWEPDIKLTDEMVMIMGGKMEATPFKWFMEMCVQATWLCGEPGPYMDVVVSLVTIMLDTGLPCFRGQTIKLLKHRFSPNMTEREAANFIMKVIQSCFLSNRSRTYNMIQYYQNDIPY
PI4KA/PI4KAP2 (Homo sapiens), sequence (P42356 whole entry, looked up): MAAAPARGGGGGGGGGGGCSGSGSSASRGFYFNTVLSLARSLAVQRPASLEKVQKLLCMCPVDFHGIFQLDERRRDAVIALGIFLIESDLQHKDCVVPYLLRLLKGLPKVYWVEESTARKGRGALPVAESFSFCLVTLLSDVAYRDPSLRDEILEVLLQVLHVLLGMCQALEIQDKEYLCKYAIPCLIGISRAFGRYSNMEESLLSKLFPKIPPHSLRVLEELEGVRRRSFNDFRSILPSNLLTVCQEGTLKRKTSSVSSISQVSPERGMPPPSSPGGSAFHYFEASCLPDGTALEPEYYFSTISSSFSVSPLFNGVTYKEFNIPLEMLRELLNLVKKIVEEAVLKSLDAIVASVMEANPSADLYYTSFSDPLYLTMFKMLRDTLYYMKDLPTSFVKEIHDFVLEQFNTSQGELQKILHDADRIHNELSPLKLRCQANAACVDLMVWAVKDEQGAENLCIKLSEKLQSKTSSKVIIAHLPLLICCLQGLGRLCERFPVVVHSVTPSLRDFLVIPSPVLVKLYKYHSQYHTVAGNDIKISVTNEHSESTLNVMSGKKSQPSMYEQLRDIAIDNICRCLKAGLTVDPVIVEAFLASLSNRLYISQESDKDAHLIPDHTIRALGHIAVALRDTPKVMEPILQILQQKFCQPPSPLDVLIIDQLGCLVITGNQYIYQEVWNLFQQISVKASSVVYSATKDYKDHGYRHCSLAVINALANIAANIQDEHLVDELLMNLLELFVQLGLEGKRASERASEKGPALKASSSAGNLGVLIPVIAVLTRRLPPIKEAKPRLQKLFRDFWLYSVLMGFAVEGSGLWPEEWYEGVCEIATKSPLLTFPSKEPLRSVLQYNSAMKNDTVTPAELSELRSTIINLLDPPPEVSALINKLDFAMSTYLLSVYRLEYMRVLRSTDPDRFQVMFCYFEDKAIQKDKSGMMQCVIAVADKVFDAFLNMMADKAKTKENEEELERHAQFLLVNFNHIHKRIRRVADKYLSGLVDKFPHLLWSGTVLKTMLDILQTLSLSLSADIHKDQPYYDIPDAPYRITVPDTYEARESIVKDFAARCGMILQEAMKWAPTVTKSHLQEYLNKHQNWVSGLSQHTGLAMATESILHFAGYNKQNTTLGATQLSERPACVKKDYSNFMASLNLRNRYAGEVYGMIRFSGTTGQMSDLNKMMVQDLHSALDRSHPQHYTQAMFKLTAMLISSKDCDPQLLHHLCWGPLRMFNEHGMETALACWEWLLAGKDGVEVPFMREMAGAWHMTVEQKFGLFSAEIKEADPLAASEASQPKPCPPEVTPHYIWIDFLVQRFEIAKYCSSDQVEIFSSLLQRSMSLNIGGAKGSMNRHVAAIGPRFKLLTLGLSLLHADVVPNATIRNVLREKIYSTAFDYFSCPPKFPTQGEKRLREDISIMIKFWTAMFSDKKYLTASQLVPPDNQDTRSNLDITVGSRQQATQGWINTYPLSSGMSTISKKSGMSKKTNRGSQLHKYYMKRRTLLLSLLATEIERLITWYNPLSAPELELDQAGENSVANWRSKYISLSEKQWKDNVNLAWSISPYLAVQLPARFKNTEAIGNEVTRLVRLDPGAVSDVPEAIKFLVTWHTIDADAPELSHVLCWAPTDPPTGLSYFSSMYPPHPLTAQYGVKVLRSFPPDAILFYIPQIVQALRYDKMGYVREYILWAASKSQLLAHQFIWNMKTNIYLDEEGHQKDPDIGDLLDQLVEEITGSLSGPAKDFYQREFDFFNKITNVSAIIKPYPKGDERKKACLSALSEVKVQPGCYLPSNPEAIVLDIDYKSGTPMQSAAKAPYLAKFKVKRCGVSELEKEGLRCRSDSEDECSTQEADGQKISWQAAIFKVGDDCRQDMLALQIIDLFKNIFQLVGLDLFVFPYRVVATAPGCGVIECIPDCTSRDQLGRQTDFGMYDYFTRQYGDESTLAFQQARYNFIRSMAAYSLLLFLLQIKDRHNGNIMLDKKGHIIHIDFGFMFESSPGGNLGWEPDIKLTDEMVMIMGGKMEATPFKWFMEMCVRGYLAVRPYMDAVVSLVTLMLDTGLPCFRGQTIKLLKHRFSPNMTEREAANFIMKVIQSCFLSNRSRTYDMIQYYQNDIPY

C[C@H]1COc2c(NCCCn3cccn3)c(F)c(N)c3c(=O)c(C(=O)O)cn1c23
20 µM: MIC (Escherichia coli)
< 35%: inhibition [1] | inhibition at 0.1 µM (HL-60) | inhibition [2] | inhibition [3] | inhibition [4] | inhibition [5] | inhibition [6] | inhibition [7] | inhibition [8]

C[C@H]1COc2c(NCCCc3ccccn3)c(F)c(N)c3c(=O)c(C#N)cn1c23
< 35%: inhibition [1] | inhibition at 0.1 µM (HL-60) | inhibition [2] | inhibition [3] | inhibition [4] | inhibition [5] | inhibition [6] | inhibition [7] | inhibition [8]
> 298 µM: MIC (Escherichia coli)

C[C@H]1COc2c(NCCCn3cccn3)c(F)c(N)c3c(=O)c(C#N)cn1c23
> 306 µM: MIC (Escherichia coli)
< 35%: inhibition [1] | inhibition at 0.1 µM (HL-60) | inhibition [2] | inhibition [3] | inhibition [4] | inhibition [5] | inhibition [6] | inhibition [7] | inhibition [8]

C[C@H]1COc2c(NCCCc3ccccn3)c(F)c(N)c3c(=O)c(C(=O)O)cn1c23
< 35%: inhibition [1] | inhibition at 0.1 µM (HL-60) | inhibition [2] | inhibition [3] | inhibition [4] | inhibition [5] | inhibition [6] | inhibition [7] | inhibition [8]
19 µM: MIC (Escherichia coli)
